Assay results as given in patent US20230312643A1, “PEPTIDE DERIVATIVE WITH COLLAGENASE INHIBITORY ACTIVITY, AND USE THEREOF” (SUNMARINE BIOTECH, priority 2020, published 2023).

Key:
gelatinase = experiment: Gelatinase inhibitory activity (EnzChek Gelatinase/Collagenase Assay Kit, DQ gelatin); type: biochemical
Protocol: Gelatinase is an enzyme which plays a major role in promoting skin aging by more finely degrading collagen fragments digested by MMP-1 with MMP-2, and wrinkle reduction activity was determined by measuring the inhibitory activity of the enzyme.
(§1) Gelatinase inhibitory activity was performed by purchasing EnzChek® Gelatinase/Collagenase Assay Kit (250-2000 Assays) reagent from Invitrogen. First, DQ gelatin stock solution (1 mg/ml) was prepared by adding 1.0 ml of DDW to 1 mg DQ gelatin vial. The 18 ml of DDW was added to 2 ml of 10× reaction buffer, so as to dilute reaction buffer. Then, a gelatinase enzyme reagent was prepared, and diluted with reaction buffer to a final concentration of 0.2 U/ml as working solution. Three samples of 50 ? each were prepared in a 96-well plate. The 30 ? of reaction buffer was added to 20 ? of DQ gelatin and sample blank, and 30 ? of working solution was added to a sample, which were then left in a light-blocked state at room temperature for about one to two hours, and then fluorescence intensity was measured at excitation wavelength 485 nm and 535 nm using ELISA plate reader (VICTOR X3™, PerkinElmer, US).

elastase = target: T1, elastase (Sus scrofa, UniProt P00772); experiment: Elastase inhibitory activity (EnzChek Elastase Assay Kit, DQ elastin); type: biochemical; conditions: for inhibition at 20 µg/mL: 0.02 mg/ml; for inhibition at 40 µg/mL: 0.04 mg/ml; for inhibition at 60 µg/mL: 0.06 mg/ml
T1 construct: purchased Invitrogen
Protocol: Elastase inhibitory activity was performed by purchasing EnzChek® Elastase Assay Kit (600 Assays) reagent from Invitrogen. First, DQ elastin stock solution (1 mg/ml) was prepared by adding 1.0 ml of DDW to 1 mg DQ elastin vial. The 18 ml of DDW was added to 2 ml of 10× reaction buffer, so as to dilute reaction buffer. Then, an elastase enzyme reagent was prepared, and diluted with reaction buffer to a final concentration of 0.2 U/ml as working solution. Three samples of 50 ? each were prepared in a 96-well plate. The 50 ? of reaction buffer was added to 50 ? of DQ elastin and sample blank, and 50 ? of working solution was added to a sample, which were then left in a light-blocked state at room temperature for about one hour, and then fluorescence intensity was measured at excitation wavelength 505 nm and emission wavelength 515 nm using ELISA plate reader (VICTOR X3™, PerkinElmer, US).
Copper peptide (Comparative Example 12) and EGCg (Comparative Example 13), which is widely used as a raw material for functional cosmetics, were prepared at the same concentration and used as a positive control.
EGCg (epigallocatechin gallate) is a kind of polyphenol, which is an extract of green tea leaves, and is used as a cosmetic raw material for anti-oxidation, inflammation reduction, and wrinkle alleviation, and Copper peptide is used as a raw material for promoting wound healing, strengthening skin elasticity, and increasing subcutaneous fat layer to suppress skin aging due to excellent skin regeneration ability.

MMP1 protein (pdb1cgl) [1] = target: T2, MMP1 protein (pdb1cgl) (Homo sapiens, UniProt P03956); experiment: Molecular docking (SYBYL-X 2.1.1, Surflex-Dock 2.7) of binding affinity to collagenase; conditions: from Surflex-Dock total score
T2 sequence (P03956 101-269 limits assumed): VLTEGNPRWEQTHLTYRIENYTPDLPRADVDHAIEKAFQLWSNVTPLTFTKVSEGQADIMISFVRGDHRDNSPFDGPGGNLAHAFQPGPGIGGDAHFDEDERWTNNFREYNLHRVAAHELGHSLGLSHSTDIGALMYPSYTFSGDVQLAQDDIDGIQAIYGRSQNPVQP
Protocol: Molecular modeling was conducted through a computer simulation program.
Target structure: MMP1 protein (pdb1cgl)
Software: SYBYL-X 2.1.1, Surflex-Dock2.7
Through a computer simulation program, a study was conducted on how to promote collagenase enzyme inhibitory activity and percutaneous absorption during peptide modification.
Total score is a value indicating the degree of binding affinity of a docked structure including a crash and a polar interaction in the unit of pKd, and the larger the value, the higher the binding affinity. And, the similarity is a value comparing the similarity with the structure already bonded to the 1cgl, and means that the closer to 1, the more similar. The result of such docking means that the addition of an appropriate modification residue through a docking simulation of computer chemistry may increase the binding affinity and similarity.
However, when compared with the overall consensus score, a binding affinity similar to or higher than that of pdb1cgl_ligand may be expected, particularly in the modified GPN and PGN, too.

HS68 cells = experiment: HS68 cytotoxicity test (MTS cell viability); type: cell-based; conditions: HS68, 50 μg/ml, 24 hours
Protocol: (§2) Skin fibroblast HS68 cells were used. The medium was DMEM high glucose (SH30243.01, HyClone™, Logan, UT, USA) medium containing 10% fetal bovine serum (FBS, Lonza, Valais, Switzerland) medium. The cell lines were cultured in an incubator adjusted to 95% humidity, 5% CO2 and 37° C., and at this time, a medium antibiotic (Penicillin streptomycin, Gibco, Calif., USA) was used to suppress contamination or proliferation of microorganisms.
(§3) Cell viability was measured using MTS (CellTiter 96® AQueous One Solution Cell Proliferation Assay, Promega, USA) reagent. The cells were divided at a concentration of 1×10^4 cells/well in a 96-well plate and then stabilized for 24 hours in an incubator controlled to 95% humidity, 5% CO2 and 37° C. After that, the samples were treated for each concentration and cultured for 24 hours in an incubator controlled to 95% j humidity, 5% CO2 and 37° C. After the medium was removed, 9 ml of medium (DMEM high, free FBS) was added to 1 ml of the reagent and diluted, and then 100 ul of the diluted solution was treated per well. After the reaction at 37° C. for 60 minutes, absorbance was measured at 490 nm with microplate reader (Molecular Devices, VersaMax ELISA Microplate Reader, USA). Cell viability was represented by absorbance of a sample-treated group compared to a control group not treated with the sample.

[2] = HS68 cytotoxicity test (MTS cell viability); type: cell-based; conditions: human, HS68 cells (skin fibroblasts); for viability at 24 h, 1 µg/mL: HS68, 1 μg/ml; for viability at 24 h, 10 µg/mL: HS68, 10 μg/ml; for viability at 24 h, 100 µg/mL: HS68, 100 μg/ml; for viability at 24 h, 50 µg/mL: HS68, 50 μg/ml
Protocol: as §2, §3

[3] = HaCaT cytotoxicity test (MTS cell viability); type: cell-based; conditions: human, HaCaT cells (skin epidermal cells); for viability at 24 h, 1 µg/mL: 1 μg/ml; for viability at 24 h, 10 µg/mL: 10 μg/ml; for viability at 24 h, 50 µg/mL: 50 μg/ml; for viability at 24 h, 100 µg/mL: 100 μg/ml
Protocol: HaCaT cells, skin epidermal cells (derived from human), were used. The medium was DMEM low (SH30021.01, HyClone™, Logan, UT, USA) medium containing 10% fetal bovine serum (FBS, Lonza, Valais, Switzerland) medium. The cell lines were cultured in an incubator adjusted to 95% humidity, 5% CO2 and 37° C., and at this time, a medium antibiotic (Penicillin streptomycin, Gibco, Calif., USA) was used to suppress contamination or proliferation of microorganisms. When the cells covered the dish about 80%, the cells were washed with phosphated-buffered saline-EDTA (PBS-EDTA), and then the cells attached to the bottom of the dish were detached by treating with 1 ml of 0.05% trypsin EDTA, and subjected to subculture. The medium was exchanged every 48 hours to culture the cells.
as §3, with “each concentration (table 1) and cultured” for “each concentration and cultured”, “to 95% humidity, 5%” for “to 95% j humidity, 5%”, “medium (DMEM low, free FBS)” for “medium (DMEM high, free FBS)”

MMP1 protein (pdb1cgl) [4] = target: T2, MMP1 protein (pdb1cgl); conditions: ligand binding to pdb; cited from earlier work
collagenase = experiment: Collagenase inhibitory activity (EnzChek Gelatinase/Collagenase Assay Kit, DQ collagen); type: biochemical
Protocol: as §1, with “Collagenase inhibitory activity” for “Gelatinase inhibitory activity”, “First, DQ collagen stock solution” for “First, DQ gelatin stock solution”, “mg DQ collagen vial. The” for “mg DQ gelatin vial. The”, “Then, a collagenase enzyme reagent” for “Then, a gelatinase enzyme reagent”, “of DQ collagen and sample” for “of DQ gelatin and sample”, “nm and emission wavelength 535 nm” for “nm and 535 nm”
As a positive control, copper peptide (Comparative Example 12), which is a representative peptide widely used as a raw material for functional cosmetics, was prepared at the same concentration and used. Copper peptide has excellent skin regeneration ability and thus is used as a raw material to suppress skin aging by promoting wound healing, strengthening skin elasticity, and increasing subcutaneous fat layers.

T1 sequence (P00772 27-266): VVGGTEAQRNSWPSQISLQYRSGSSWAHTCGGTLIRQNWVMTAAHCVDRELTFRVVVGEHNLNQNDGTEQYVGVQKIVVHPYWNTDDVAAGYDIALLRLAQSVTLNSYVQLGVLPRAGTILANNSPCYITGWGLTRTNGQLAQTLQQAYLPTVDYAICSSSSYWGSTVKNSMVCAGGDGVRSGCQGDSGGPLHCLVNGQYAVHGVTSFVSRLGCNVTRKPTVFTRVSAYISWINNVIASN

Structure (SMILES)	binding affinity compared to 1cgl ligand (MMP1 protein (pdb1cgl) [1])	inhibition at 20 µg/mL (elastase) [%]	inhibition at 40 µg/mL (elastase) [%]	inhibition at 60 µg/mL (elastase) [%]	inhibition at 100 µg/mL (elastase; 0.1 mg/ml) [%]	viability at 24 h, 1 µg/mL [2] [%]	viability at 24 h, 10 µg/mL [2] [%]	viability at 24 h, 100 µg/mL [2] [%]	viability at 24 h, 1 µg/mL [3] [%]	viability at 24 h, 10 µg/mL [3] [%]	viability at 24 h, 50 µg/mL [3] [%]	viability at 24 h, 100 µg/mL [3] [%]	further results
O=C(O[C@@H]1Cc2c(O)cc(O)cc2O[C@@H]1c1cc(O)c(O)c(O)c1)c1cc(O)c(O)c(O)c1 [EGCg, epigallocatechin gallate, reference compound]	–	–	–	–	–	–	–	–	–	–	–	–	Gelatinase inhibitory activity (gelatinase; 0.5 mg/ml): 74.7%; elastase inhibitory activity (elastase; 0.1 mg/ml): 66.1 ± 4.4%; elastase inhibitory activity (elastase; 1 mg/ml): 66.1%
CN1CCC[C@H]1C(=O)NCC(=O)N[C@@H](CC(N)=O)C(=O)O [Me-PGN]	–	5.2 ± 1.7	6.9 ± 1.8	9.9 ± 1.5	11.2 ± 1.1	103 ± 3.9	104 ± 4.5	104 ± 5.6	125 ± 6.1	127 ± 6.5	122 ± 3.7	126 ± 14.8	inhibition at 1000 µg/mL (elastase; 1 mg/ml): 11.2%; Cell viability (HS68 cells): 103 ± 3.4%
COC(=O)NCC[C@@H](N[C@@H](CC(C)C)C(=O)N[C@@H](Cc1ccccc1)C(=O)NCCN1CCOCC1)C(=O)O [PDB 1CGL]	–	–	–	–	–	–	–	–	–	–	–	–	Ki (MMP1 protein (pdb1cgl) [4]): 0.135 µM
CCCOC(=O)[C@H](CC(N)=O)NC(=O)CNC(=O)[C@@H]1CCCN1 [PGN-OPr, PGN(Pro-Gly-Asn)-OPr]	–	17.3 ± 1.1	27.5 ± 2.5	34.2 ± 0.5	77.6 ± 2.8	107 ± 2.4	107 ± 8.9	116 ± 3.6	117 ± 9.6	126 ± 14.1	130 ± 13.3	128 ± 5.3	Gelatinase inhibitory activity (gelatinase; 0.2 mg/ml): 16.9 ± 2.7%; Gelatinase inhibitory activity (gelatinase; 0.3 mg/ml): 54.2 ± 6.3%; Gelatinase inhibitory activity (gelatinase; 0.4 mg/ml): 96.4 ± 1.8%; Gelatinase inhibitory activity (gelatinase; 0.5 mg/ml): 98.9%; gelatinase inhibitory activity, times higher than that of Copper peptide (gelatinase; 0.5 mg/ml): ~15 times; gelatinase inhibitory activity, times higher than that of EGCg (gelatinase; 0.5 mg/ml): about 1.3 times; inhibition at 1000 µg/mL (elastase; 1 mg/ml): 77.6%; IC50 (elastase; FIGS. 8 and 9): 216 µM; viability at 24 h, 50 µg/mL [2]: 115 ± 6.9%; Collagenase inhibitory activity (collagenase; 0.05 mg/ml): 5.7 ± 3.1%; Collagenase inhibitory activity (collagenase; 0.1 mg/ml): 14.3 ± 5.2%; Collagenase inhibitory activity (collagenase; 0.5 mg/ml): 67.1 ± 0.8%; Collagenase inhibitory activity (collagenase; 1 mg/ml): 98.7%; collagenase inhibitory activity IC50 (collagenase; FIGS. 5 and 6): 508 µg/mL

Further lines, with some results ahead:

binding affinity compared to 1cgl ligand (MMP1 protein (pdb1cgl) [1])	inhibition at 20 µg/mL (elastase) [%]	inhibition at 40 µg/mL (elastase) [%]	inhibition at 60 µg/mL (elastase) [%]	inhibition at 100 µg/mL (elastase; 0.1 mg/ml) [%]	Structure (SMILES)	viability at 24 h, 1 µg/mL [2] [%]	viability at 24 h, 10 µg/mL [2] [%]	viability at 24 h, 100 µg/mL [2] [%]	viability at 24 h, 1 µg/mL [3] [%]	viability at 24 h, 10 µg/mL [3] [%]	viability at 24 h, 50 µg/mL [3] [%]	viability at 24 h, 100 µg/mL [3] [%]	further results
about 51.8%	–	–	–	–	NCC(=O)N1CCC[C@H]1C(=O)N[C@@H](CC(N)=O)C(=O)O [GPN, Gly-Pro-Asn, reference compound]	–	–	–	–	–	–	–	–
74.7%	–	–	–	–	CCCC(=O)C(CC(N)=O)NC(=O)C1CCCN1C(=O)CNC (centres unmarked) [Me-GPN-Propyl]	–	–	–	–	–	–	–	increase of binding affinity compared to before the modification (MMP1 protein (pdb1cgl) [1]): 21.9%
90.1%	–	–	–	–	CCCC(=O)C(CC(N)=O)NC(=O)CNC(=O)C1CCCN1C (centres unmarked) [Me-PGN-Propyl]	–	–	–	–	–	–	–	increase of binding affinity compared to before the modification (MMP1 protein (pdb1cgl) [1]): 28.6%
–	0.3 ± 0.9	1.2 ± 2.8	1.5 ± 2	5.2 ± 2.9	CCCCCCCCCCCCCCCC(=O)N1CCC[C@H]1C(=O)NCC(=O)N[C@@H](CC(N)=O)C(=O)O [Pal-PGN]	106 ± 2.9	111 ± 2.8	116 ± 3.3	115 ± 10	112 ± 3.7	113 ± 7.7	108 ± 6.5	viability at 24 h, 50 µg/mL [2]: 105 ± 3.3%
